The NIST ThermoML archive (doi:10.1021/acs.jced.7b00344)

Assay: xn = mol fraction of the nth substance listed
Conditions: 101.3 kPa, Liquid; for viscosity: Capillary tube (Ostwald / Ubbelohde) method; for mass density: Pycnometric method

CC(=O)CCCCl [1-chloro-4-pentanone] + CC(=O)C1CC1
Conditions	mass density, 303.15 K [kg/m3]	mass density, 313.15 K [kg/m3]	mass density, 323.15 K [kg/m3]	mass density, 333.15 K [kg/m3]	viscosity, 303.15 K [mPa·s]	viscosity, 313.15 K [mPa·s]	viscosity, 323.15 K [mPa·s]	viscosity, 333.15 K [mPa·s]
x2 = 0	1051.3	1041.1	1031.2	1020.8	1.582	1.318	1.078	0.9667
x2 = 0.0998	1039.1	1029.1	1019.4	1009.3	1.427	1.21	1.03	0.8933
x2 = 0.2009	1026.1	1016.3	1006.7	996.8	1.223	1.043	0.9043	0.7927
x2 = 0.3004	1012.5	1002.9	993.4	983.6	1.135	0.9766	0.8507	0.7484
x2 = 0.4002	998	988.5	979.1	969.5	1.07	0.9252	0.8063	0.7131
x2 = 0.4999	982.8	973.3	963.9	954.4	0.955	0.8296	0.7322	0.6517
x2 = 0.5999	966.5	957.1	947.7	938.3	0.8757	0.7715	0.6787	0.6086
x2 = 0.6999	948.9	939.7	930.4	921.1	0.839	0.7366	0.649	0.5818
x2 = 0.7999	930.2	921	911.7	902.6	0.7363	0.6493	0.5783	0.5207
x2 = 0.8999	910.5	901.1	891.6	882.4	0.7027	0.6216	0.5513	0.4968

CC(=O)C1CCOC1=O (stereo not given) [2-acetylbutyrolactone] + CC(=O)C1CC1
Conditions	mass density, 303.15 K [kg/m3]	mass density, 313.15 K [kg/m3]	mass density, 323.15 K [kg/m3]	mass density, 333.15 K [kg/m3]	viscosity, 303.15 K [mPa·s]	viscosity, 313.15 K [mPa·s]	viscosity, 323.15 K [mPa·s]	viscosity, 333.15 K [mPa·s]
x2 = 0	1185.7	1178.3	1168.9	1159.4	3.794	3.424	3.067	2.719
x2 = 0.0998	1161.9	1154.3	1144.9	1135.6	3.195	2.889	2.609	2.33
x2 = 0.2009	1136.2	1128.5	1119.1	1109.7	2.633	2.369	2.118	1.892
x2 = 0.3004	1109.7	1101.8	1092.3	1082.9	2.164	1.945	1.748	1.571
x2 = 0.4002	1081.9	1073.7	1064.2	1054.8	1.786	1.599	1.415	1.278
x2 = 0.4999	1052.8	1044.3	1034.8	1025.4	1.452	1.306	1.154	1.025
x2 = 0.5999	1022.5	1013.8	1004.2	994.8	1.198	1.054	0.9344	0.8398
x2 = 0.6999	991.1	982.1	972.4	963.1	0.9813	0.8642	0.778	0.6958
x2 = 0.7999	958.3	949.2	939.6	930.2	0.783	0.6912	0.639	0.5704
x2 = 0.8999	924.5	915.5	905.9	896.5	0.6546	0.5854	0.5436	0.4933
